Target: T1, rat serum albumin (RSA) (Rattus norvegicus, UniProt P02770)
T1 construct: gene Alb
Assay: Trp214 fluorescence quenching titration (steady-state, double-log Ka; IDF/Scatchard Kb […] ^−[…]), static mechanism confirmed by time-resolved fluorescence
Format: binding
Settings: read-out: Ka (×10^4 M^-1) (converted)

T1 sequence (P02770 25-608): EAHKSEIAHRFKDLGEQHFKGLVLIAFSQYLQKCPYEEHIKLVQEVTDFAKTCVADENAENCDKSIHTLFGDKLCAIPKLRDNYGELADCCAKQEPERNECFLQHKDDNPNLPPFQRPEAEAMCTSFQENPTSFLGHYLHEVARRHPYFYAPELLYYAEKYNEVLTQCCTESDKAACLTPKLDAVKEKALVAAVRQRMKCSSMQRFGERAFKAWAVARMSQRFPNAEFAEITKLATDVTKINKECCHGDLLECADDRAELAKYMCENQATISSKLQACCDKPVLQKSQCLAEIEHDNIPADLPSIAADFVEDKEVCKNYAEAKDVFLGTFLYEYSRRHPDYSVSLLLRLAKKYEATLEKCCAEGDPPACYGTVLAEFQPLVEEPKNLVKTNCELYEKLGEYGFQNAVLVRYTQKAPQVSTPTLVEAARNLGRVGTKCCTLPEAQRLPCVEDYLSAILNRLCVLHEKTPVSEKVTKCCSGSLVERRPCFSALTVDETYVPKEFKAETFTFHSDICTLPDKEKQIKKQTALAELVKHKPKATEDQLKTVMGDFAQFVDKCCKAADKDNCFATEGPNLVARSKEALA

O=C(/C=C/C=C/c1ccc2c(c1)OCO2)N1CCCCC1 [piperine] was tested, and the Kd was 25.6 µM.

— paper PMC6627779, “Experimental Approaches and Computational Modeling of Rat Serum Albumin and Its Interaction with Piperine” (International Journal of Molecular Sciences, 2019)
